ChEMBL document CHEMBL1133132, “Cell adhesion antagonists: synthesis and evaluation of a novel series of phenylalanine based inhibitors” (Bioorg Med Chem Lett, 2000)

Columns and labels:
Integrin alpha-4/beta-7 [1] = target: T1, Integrin alpha-4/beta-7 (Homo sapiens, UniProt P13612+P26010); assay: Inhibition of alpha-4 beta7/MAdCAM mediated cell adhesion was evaluated using B-cell lymphoma RPMI 8866 cells; assay type: functional, cell-based
T1 sequence (P13612 whole entry): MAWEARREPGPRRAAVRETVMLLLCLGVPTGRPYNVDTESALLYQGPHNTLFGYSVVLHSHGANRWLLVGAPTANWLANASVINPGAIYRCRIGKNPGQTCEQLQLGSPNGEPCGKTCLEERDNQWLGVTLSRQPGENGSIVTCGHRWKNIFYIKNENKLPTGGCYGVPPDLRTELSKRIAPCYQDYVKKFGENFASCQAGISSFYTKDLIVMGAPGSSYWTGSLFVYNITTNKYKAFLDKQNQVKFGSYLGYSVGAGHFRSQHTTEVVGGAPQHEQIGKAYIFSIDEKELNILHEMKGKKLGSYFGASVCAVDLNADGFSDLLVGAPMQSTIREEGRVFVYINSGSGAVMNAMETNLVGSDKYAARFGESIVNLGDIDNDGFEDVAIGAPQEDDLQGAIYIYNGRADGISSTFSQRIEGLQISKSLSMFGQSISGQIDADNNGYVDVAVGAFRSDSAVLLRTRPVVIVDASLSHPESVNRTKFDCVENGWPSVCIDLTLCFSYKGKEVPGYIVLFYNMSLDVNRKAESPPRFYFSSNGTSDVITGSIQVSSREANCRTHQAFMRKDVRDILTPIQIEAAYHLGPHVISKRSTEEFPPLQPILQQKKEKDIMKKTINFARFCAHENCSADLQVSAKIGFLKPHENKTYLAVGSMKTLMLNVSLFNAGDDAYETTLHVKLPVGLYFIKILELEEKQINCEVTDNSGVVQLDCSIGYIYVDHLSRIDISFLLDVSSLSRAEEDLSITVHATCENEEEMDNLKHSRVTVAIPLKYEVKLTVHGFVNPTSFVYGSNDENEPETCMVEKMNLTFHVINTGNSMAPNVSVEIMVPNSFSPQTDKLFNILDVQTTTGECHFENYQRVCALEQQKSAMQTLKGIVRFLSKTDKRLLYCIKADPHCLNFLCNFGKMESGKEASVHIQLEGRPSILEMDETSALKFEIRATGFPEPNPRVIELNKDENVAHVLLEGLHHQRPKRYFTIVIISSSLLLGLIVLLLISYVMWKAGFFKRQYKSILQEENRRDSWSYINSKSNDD
T1 sequence (P26010 whole entry): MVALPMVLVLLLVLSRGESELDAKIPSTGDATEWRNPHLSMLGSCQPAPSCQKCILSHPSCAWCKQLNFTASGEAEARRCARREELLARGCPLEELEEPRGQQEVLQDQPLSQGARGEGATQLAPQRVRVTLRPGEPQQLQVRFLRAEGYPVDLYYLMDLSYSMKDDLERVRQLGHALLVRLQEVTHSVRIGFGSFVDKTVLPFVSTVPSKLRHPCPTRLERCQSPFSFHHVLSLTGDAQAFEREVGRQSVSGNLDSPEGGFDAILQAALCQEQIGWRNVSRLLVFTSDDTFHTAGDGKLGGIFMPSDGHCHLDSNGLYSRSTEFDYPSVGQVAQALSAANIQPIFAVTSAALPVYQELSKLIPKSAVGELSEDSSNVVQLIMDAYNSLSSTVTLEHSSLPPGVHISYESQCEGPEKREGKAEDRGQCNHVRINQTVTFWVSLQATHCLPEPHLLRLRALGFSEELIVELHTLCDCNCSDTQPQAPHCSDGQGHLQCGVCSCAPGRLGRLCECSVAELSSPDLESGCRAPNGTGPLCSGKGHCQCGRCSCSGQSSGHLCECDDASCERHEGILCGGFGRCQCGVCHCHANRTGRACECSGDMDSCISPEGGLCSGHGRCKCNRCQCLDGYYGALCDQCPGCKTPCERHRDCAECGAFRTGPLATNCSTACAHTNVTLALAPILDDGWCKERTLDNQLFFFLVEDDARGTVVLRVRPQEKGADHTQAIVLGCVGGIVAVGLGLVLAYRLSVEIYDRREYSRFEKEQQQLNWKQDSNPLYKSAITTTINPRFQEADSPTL

Integrin alpha-4/beta-7 [2] = target: T1, Integrin alpha-4/beta-7; assay: Inhibition of alpha-4 beta7/MAdCAM mediated cell adhesion was evaluated using B-cell lymphoma RPMI 8866 cells; In active; assay type: functional, cell-based

SMILES	IC50 (Integrin alpha-4/beta-7 [1]) [µM]	IC50 (Integrin alpha-4/beta-7 [2])
COc1ccc(CN[C@@H](Cc2ccccc2)C(=O)OC(C)(C)C)cc1	122	–
CC(C)(C)OC(=O)[C@H](Cc1ccccc1)NCc1cccc(F)c1	176	–
COc1cccc(CN[C@@H](Cc2ccccc2)C(=O)OC(C)(C)C)c1	122	–
CC(C)(C)OC(=O)[C@H](Cc1ccccc1)NCc1ccc(F)cc1	121	–
CC(C)(C)OC(=O)[C@H](Cc1ccccc1)NCc1ccccc1	100	–
CC(C)CCNC(=O)[C@@H](Cc1ccccc1)NCc1cc([N+](=O)[O-])ccc1O	–	Not Active
CC(C)(C)OC(=O)[C@H](Cc1ccccc1)NCc1ccccc1F	117	–
COc1ccccc1CN[C@@H](Cc1ccccc1)C(=O)OC(C)(C)C	50	–
CC(C)(C)OC(=O)[C@H](Cc1ccccc1)NCc1ccc([N+](=O)[O-])c(O)c1	–	Not Active

More lines, in order of falling IC50 (Integrin alpha-4/beta-7 [1]), values ahead:

IC50 (Integrin alpha-4/beta-7 [1]) [µM]	IC50 (Integrin alpha-4/beta-7 [2])	SMILES
85	–	CC(C)(C)OC(=O)[C@H](Cc1ccccc1)NCc1ccc(O)cc1
82	–	C=C(C)CCOC(=O)[C@H](Cc1ccccc1)NCc1cc([N+](=O)[O-])ccc1O
60	–	CC(C)(C)OC(=O)[C@H](Cc1ccccc1)NCc1ccccc1O
54	–	CC(C)(C)OC(=O)[C@H](Cc1ccccc1)NCc1cccc(O)c1
30	–	CC(C)(C)OC(=O)[C@H](Cc1ccccc1)NCc1cc([N+](=O)[O-])ccc1O
9	–	CC(C)(C)COC(=O)[C@H](Cc1ccccc1)NCc1cc([N+](=O)[O-])ccc1O
7	–	CC(C)CCOC(=O)[C@H](Cc1ccccc1)NCc1cc([N+](=O)[O-])ccc1O
7	–	O=C(OCc1ccccc1)[C@H](Cc1ccccc1)NCc1cc([N+](=O)[O-])ccc1O
6	–	CC(C)CCNC(=O)[C@H](Cc1ccccc1)NCc1cc([N+](=O)[O-])ccc1O
